Source: patent US9512120B2, “Microbicidally active imidazopyridine derivatives” (Syngenta Participations AG, priority 2013, dated 2016)

Legend:
[1] = system: Mycosphaerella graminicola (Septoria tritici); assay: Mycosphaerella graminicola (Septoria tritici) / liquid culture (Septoria blotch); type: cell-based; conditions: Zymoseptoria tritici, PDB, 24° C., 4-5 days after application, read-out: control of Mycosphaerella graminicola (inhibition of growth, photometric)
Method in brief: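 Growth inhibition was read photometrically after 4–5 days at 24 °C. The test compound was applied at 200 ppm from DMSO solution, then PDB broth seeded with conidia taken straight from cryogenic storage was added.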

Pyrenophora teres = Pyrenophora teres / barley / leaf disc preventative (net blotch); type: in vivo; conditions: foliar, barley leaf segments cv Hasso, inoculated two days after application, assessed 5-7 days after application, read-out: control of Pyrenophora teres (disease control compared to untreated)
Method in brief: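 Preventative leaf-disc test: 200 ppm spray, then spore inoculation after two days on barley cv Hasso segments. Incubation 20 °C, 65% relative humidity, 12 h light/12 h dark; efficacy rated against untreated checks at 5-7 days post-application.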

[2] = system: Monographella nivalis (Microdochium nivale); assay: Monographella nivalis (Microdochium nivale) / liquid culture (foot rot cereals); type: cell-based; conditions: PDB, 24° C., 4-5 days after application, read-out: control of Monographella nivalis (inhibition of growth, photometric)
Procedure: (§1) Monographella nivalis (Microdochium nivale)/Liquid Culture (Foot Rot Cereals): Conidia of the fungus from cryogenic storage were directly mixed into nutrient broth (PDB potato dextrose broth). After placing a DMSO solution of test compound into a 96-well microtiter plate at an application rate of 200 ppm, the nutrient broth containing the fungal spores was added. The test plates were incubated at 24° C. and the inhibition of growth was determined photometrically 4-5 days after application.

[3] = system: Botryotinia fuckeliana (Botrytis cinerea); assay: Botryotinia fuckeliana (Botrytis cinerea) / liquid culture (gray mould); type: cell-based; conditions: Vogels broth, 24° C., 3-4 days after application, read-out: control of Botryotinia fuckeliana (inhibition of growth, photometric)
Method in brief: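 Test compound was applied at 200 ppm in DMSO, then Vogels nutrient broth containing cryo-stored B. cinerea conidia was added. Photometric growth-inhibition reading followed after 3-4 days at 24 °C.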

[4] = system: Thanatephorus cucumeris (Rhizoctonia solani); assay: Thanatephorus cucumeris (Rhizoctonia solani) / liquid culture (foot rot, damping-off); type: cell-based; conditions: PDB, 24° C., 3-4 days after application, read-out: control of Thanatephorus cucumeris (inhibition of growth, photometric)
Method in brief: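 At 200 ppm, compounds in DMSO were combined with fresh liquid-culture mycelia in PDB and kept at 24° C; photometric measurement of growth inhibition after 3-4 days.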

Gaeumannomyces graminis = Gaeumannomyces graminis / liquid culture (take-all of cereals); type: cell-based; conditions: PDB, 24° C., 4-5 days after application, read-out: control of Gaeumannomyces graminis (inhibition of growth, photometric)
Procedure: Gaeumannomyces graminis/Liquid Culture (Take-all of Cereals): Mycelial fragments of the fungus from cryogenic storage were directly mixed into nutrient broth (PDB potato dextrose broth). After placing a DMSO solution of test compound into a 96-well microtiter plate at an application rate of 200 ppm, the nutrient broth […], containing the fungal spores is added. The test plates were incubated at 24° C. and the inhibition of growth was determined photometrically 4-5 days after application.

[5] = system: Puccinia recondita f. sp. Tritici; assay: Puccinia recondita f. sp. tritici / wheat / leaf disc preventative (brown rust); type: in vivo; conditions: foliar, wheat leaf segments cv Kanzler, inoculated 1 day after application, assessed 7-9 days after application, read-out: control of Puccinia recondita f. sp. Tritici (percent disease control compared to untreated)
Method in brief: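 Preventative test: percent disease control relative to untreated leaf segments was assessed 7-9 days post-application. Wheat (cv Kanzler) leaf discs were treated at 200 ppm and spore-inoculated 1 day afterwards. Discs were held at 19° C and 75% relative humidity under a 12/12 h light cycle.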

[6] = system: Glomerella lagenarium (Colletotrichum lagenarium); assay: Glomerella lagenarium (Colletotrichum lagenarium) / liquid culture (anthracnose); type: cell-based; conditions: Colletotrichum orbiculare, PDB, 24° C., 3-4 days after application, read-out: control of Glomerella lagenarium (inhibition of growth, photometric)
Procedure: as §1, with “Glomerella lagenarium (Colletotrichum lagenarium)/Liquid” for “Monographella nivalis (Microdochium nivale)/Liquid”, “(Anthracnose):” for “(Foot Rot Cereals):”, “is measured” for “was determined”, “3-4” for “4-5”

Sclerotinia sclerotiorum = Sclerotinia sclerotiorum liquid culture (cottony rot / white mold); type: cell-based; conditions: PDB, 24° C., 3-4 days after application, read-out: control of Sclerotinia sclerotiorum (inhibition of growth, photometric)
Procedure: Sclerotinia sclerotiorum (Cottony Rot/White Mold): Mycelia fragments of a newly grown liquid culture of the fungus were directly mixed into nutrient broth (PDB potato dextrose broth). After placing a (DMSO) solution of test compound into a microtiter plate (96-well format) the nutrient broth containing the fungal material was added. The test plates are incubated at 24° C. and the inhibition of growth was determined photometrically 3-4 days after application.

[7] = system: Phaeosphaeria nodorum (Septoria nodorum); assay: Phaeosphaeria nodorum (Septoria nodorum) / wheat / leaf disc preventative (glume blotch); type: in vivo; conditions: Parastagonospora nodorum, foliar, wheat leaf segments cv Kanzler, inoculated 2 days after application, assessed 5-7 days after application, read-out: control of Phaeosphaeria nodorum (percent disease control compared to untreated)
Procedure: Phaeosphaeria nodorum (Septoria nodorum)/Wheat/Leaf Disc Preventative (Glume Blotch): Wheat leaf segments cv Kanzler were placed on agar in a 24-well plate and sprayed with formulated test compound diluted in water at an application rate of 200 ppm. The leaf disks are inoculated with a spore suspension of the fungus 2 days after application. The inoculated test leaf disks are incubated at 20° C. and 75% relative humidity under a light regime of 12/12 h (light/dark) in a climate cabinet and the activity of a compound is assessed as percent disease control compared to untreated when an appropriate level of disease damage appears in untreated check leaf disks (5-7 days after application).

[8] = system: Mycosphaerella arachidis (Cercospora arachidicola); assay: Mycosphaerella arachidis (Cercospora arachidicola) / liquid culture (early leaf spot); type: cell-based; conditions: PDB, 24° C., 4-5 days after application, read-out: control of Mycosphaerella arachidis (inhibition of growth, photometric)
Procedure: Mycosphaerella Arachidis (Cercospora arachidicola)/Liquid Culture (Early Leaf Spot): Conidia of the fungus from cryogenic storage were directly mixed into nutrient broth (PDB potato dextrose broth). After placing a DMSO solution of test compound into a 96-well microtiter plate at an application rate of 200 ppm, the nutrient broth containing the fungal spores was added. The test plates are incubated at 24° C. and the inhibition of growth was determined photometrically 4-5 days after application.

Row | SMILES | inhibition at 20 ppm [1] [%] | pest or weed control at 200 ppm (Pyrenophora teres) [%] | inhibition at 20 ppm [2] [%] | inhibition at 20 ppm [3] [%] | inhibition at 20 ppm [4] [%] | inhibition at 20 ppm (Gaeumannomyces graminis) [%] | pest or weed control at 200 ppm [5] [%] | inhibition at 20 ppm [6] [%] | inhibition at 20 ppm (Sclerotinia sclerotiorum) [%] | pest or weed control at 200 ppm [7] [%] | melting point [°C] | inhibition at 20 ppm [8] [%]
1 | CCn1c(-n2ncnc2N)nc2cncc(-c3ccc(OC)cc3Cl)c21 [Compound 94, 2-[7-(2-chloro-4-methoxyphenyl)-1-ethylimidazo[4,5-c]pyridin-2-yl]-1,2,4-triazol-3-amine] | ≥ 80 | ≥ 80 | ≥ 80 | ≥ 80 | ≥ 80 | ≥ 80 | ≥ 80 | ≥ 80 | ≥ 80 | ≥ 80 |  | 
2 | Nc1nc(C(F)(F)F)nn1-c1nc2cnccc2n1C1CCCCC1 [Compound 3, 2-(1-cyclohexylimidazo[4,5-c]pyridin-2-yl)-5-(trifluoromethyl)-1,2,4-triazol-3-amine] |  |  |  |  |  |  |  | ≥ 80 |  |  | 203 to 206 | 
3 | CCn1c(-n2ncnc2N)nc2cncc(/C(C)=N/OC/C=C\Cl)c21 [Compound 171] | ≥ 80 | ≥ 80 | ≥ 80 | ≥ 80 | ≥ 80 | ≥ 80 |  | ≥ 80 | ≥ 80 | ≥ 80 |  | 
4 | CCCC=Cc1cncc2nc(-n3ncnc3N)n(CC)c12 [Compound 68, 2-(1-ethyl-7-pent-1-enylimidazo[4,5-c]pyridin-2-yl)-1,2,4-triazol-3-amine] | ≥ 80 | ≥ 80 |  | ≥ 80 | ≥ 80 | ≥ 80 | ≥ 80 |  | ≥ 80 | ≥ 80 |  | ≥ 80
5 | Nc1ncnn1-c1nc2cncc(Br)c2n1C1CCCCC1 [Compound 112, 2-(7-bromo-1-cyclohexylimidazo[4,5-c]pyridin-2-yl)-1,2,4-triazol-3-amine] |  |  |  |  |  |  |  | ≥ 80 |  |  | 217 to 218 | 
6 | Cc1nc(N)n(-c2nc3cnccc3n2C2CCCCC2)n1 [Compound 5, 2-(1-cyclohexylimidazo[4,5-c]pyridin-2-yl)-5-methyl-1,2,4-triazol-3-amine] |  | ≥ 80 |  |  |  | ≥ 80 |  |  |  |  | 212 to 215 | 
7 | Cn1c(-n2ncnc2N)nc2cnccc21 [Compound 14, 2-(1-methylimidazo[4,5-c]pyridin-2-yl)-1,2,4-triazol-3-amine] |  | ≥ 80 |  |  |  | ≥ 80 |  |  |  |  | 240 to 244 | 
8 | CCn1c(-n2ncnc2N)nc2cncc(C(C)=NOCc3ccccn3)c21 [Compound 142] |  | ≥ 80 |  |  | ≥ 80 | ≥ 80 |  |  |  |  | 138 to 149 | 
9 | C=C(Cl)CO/N=C(\C)c1cncc2nc(-n3ncnc3N)n(CC)c12 [Compound 152] | ≥ 80 | ≥ 80 |  |  | ≥ 80 |  |  | ≥ 80 |  |  |  | ≥ 80
10 | CCn1c(-n2ncnc2N)nc2cncc(-c3ccc(F)cc3)c21 [Compound 29, 2-[1-ethyl-7-(4-fluorophenyl)imidazo[4,5-c]pyridin-2-yl]-1,2,4-triazol-3-amine] | ≥ 80 |  |  | ≥ 80 | ≥ 80 | ≥ 80 |  |  |  |  | 275 to 277 | 
11 | C=CCn1c(-n2ncnc2N)nc2cnccc21 [Compound 17, 2-(1-prop-2-enylimidazo[4,5-c]pyridin-2-yl)-1,2,4-triazol-3-amine] | ≥ 80 | ≥ 80 |  | ≥ 80 | ≥ 80 | ≥ 80 | ≥ 80 |  |  |  | 215 to 216 | 
12 | CCn1c(-n2ncnc2N)nc2cncc(C(C)O)c21 (stereo not drawn) [Example P8, 1-[2-(5-amino-1,2,4-triazol-1-yl)-1-ethyl-imidazo[4,5-c]pyridin-7-yl]ethanol] |  |  |  |  |  |  |  |  |  |  | 220 to 226 | 
13 | CCn1c(-n2ncnc2N)nc2c(Cl)ncc(-c3ccccc3C)c21 [Example P7, 2-[4-chloro-1-ethyl-7-(o-tolyl)imidazo[4,5-c]pyridin-2-yl]-1,2,4-triazol-3-amine] |  |  |  |  |  |  |  |  |  |  | 274 to 278 | 
14 | CCn1c(-n2ncnc2N)nc2cncc(-c3ccccc3C)c21 [Compound 72, 2-[1-ethyl-7-(2-methylphenyl)imidazo[4,5-c]pyridin-2-yl]-1,2,4-triazol-3-amine] | ≥ 80 | ≥ 80 |  | ≥ 80 | ≥ 80 |  | ≥ 80 |  |  | ≥ 80 |  | ≥ 80
15 | CCn1c(-n2ncnc2N)nc2cncc(C=Cc3ccccc3)c21 [Compound 21, 2-[1-ethyl-7-(2-phenylethenyl)imidazo[4,5-c]pyridin-2-yl]-1,2,4-triazol-3-amine] | ≥ 80 |  |  |  | ≥ 80 | ≥ 80 |  |  |  |  | 247 to 252 | 
16 | Nc1nc(-c2ccccc2)nn1-c1nc2cnccc2n1C1CCCCC1 [Example P1, 2-(1-cyclohexylimidazo[4,5-c]pyridin-2-yl)-5-phenyl-1,2,4-triazol-3-amine] |  |  |  |  |  |  |  |  |  |  | 222 to 225 | 
17 | CCn1c(-n2ncnc2N)nc2cncc(C(=O)C=Cc3ccc(F)cc3)c21 [Compound 108, 1-[2-(5-amino-1,2,4-triazol-1-yl)-1-ethylimidazo[4,5-c]pyridin-7-yl]-3-(4-fluorophenyl)prop-2-en-1-one] | ≥ 80 | ≥ 80 |  |  | ≥ 80 | ≥ 80 |  |  |  |  | 205 to 209 | 
18 | CCCn1c(-n2ncnc2N)nc2cncc(Br)c21 [Compound 110, 2-(7-bromo-1-propylimidazo[4,5-c]pyridin-2-yl)-1,2,4-triazol-3-amine] | ≥ 80 | ≥ 80 |  | ≥ 80 | ≥ 80 |  | ≥ 80 |  |  |  | 207 to 208 | 
